Experiments:
ΔF508-CFTR [1] = molecular target: T1, ΔF508-CFTR (Homo sapiens, UniProt P13569, DEL508-508); test: CFTR cell surface levels using HRP-tagged ΔF508-CFTR expressing CFBE cells, in the presence of a co-corrector; format: cell-based
T1 construct: host or cells: CFBE41o-, doxycycline-inducible
Procedure, shortened: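 Cells were seeded with 0.5 μg/mL doxycycline and held 68 h at 37 °C. Test compounds plus 3 μM co-corrector (final 0.1% DMSO) were then added for 20 h at 33 °C. Washed cells received HRP substrate, and luminescence was normalized between DMSO and 3 μM co-corrector controls.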

ΔF508-CFTR [2] = molecular target: T1, ΔF508-CFTR; test: CFTR cell surface levels using HRP-tagged ΔF508-CFTR expressing CFBE cells, intrinsic corrector capacity; format: cell-based
Procedure, shortened: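 Here the cells express ΔF508-CFTR with horseradish peroxidase inserted in extracellular loop 4, so only rescued channel at the surface gives luminescent signal. Compounds act on their own, 20 h at the reduced temperature of 33 °C; values are percent activity relative to DMSO and a 3 μM corrector.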

[3] = HRP-tagged ΔF508-CFTR expressing CFBE cells, in the presence of 3 μM co-corrector
[4] = HRP-tagged ΔF508-CFTR expressing CFBE cells, in the presence of 3 μM co-corrector, read-out: EC50
[5] = HRP-tagged ΔF508-CFTR CFBE41o- cells, compounds alone (intrinsic corrector capacity), 20 hours at 33° C., positive control 3 μM corrector
[6] = HRP-tagged ΔF508-CFTR CFBE41o- cells, compounds alone (intrinsic corrector capacity), 20 hours at 33° C., read-out: EC50
[7] = HRP-tagged ΔF508-CFTR expressing CFBE cells, intrinsic corrector capacity (no co-corrector), 33° C., 20 hours
[8] = HRP-tagged ΔF508-CFTR expressing CFBE cells, intrinsic corrector capacity (no co-corrector), 33° C., 20 hours, read-out: EC50

T1 sequence (P13569 with tags, fused parts or gaps DEL508-508): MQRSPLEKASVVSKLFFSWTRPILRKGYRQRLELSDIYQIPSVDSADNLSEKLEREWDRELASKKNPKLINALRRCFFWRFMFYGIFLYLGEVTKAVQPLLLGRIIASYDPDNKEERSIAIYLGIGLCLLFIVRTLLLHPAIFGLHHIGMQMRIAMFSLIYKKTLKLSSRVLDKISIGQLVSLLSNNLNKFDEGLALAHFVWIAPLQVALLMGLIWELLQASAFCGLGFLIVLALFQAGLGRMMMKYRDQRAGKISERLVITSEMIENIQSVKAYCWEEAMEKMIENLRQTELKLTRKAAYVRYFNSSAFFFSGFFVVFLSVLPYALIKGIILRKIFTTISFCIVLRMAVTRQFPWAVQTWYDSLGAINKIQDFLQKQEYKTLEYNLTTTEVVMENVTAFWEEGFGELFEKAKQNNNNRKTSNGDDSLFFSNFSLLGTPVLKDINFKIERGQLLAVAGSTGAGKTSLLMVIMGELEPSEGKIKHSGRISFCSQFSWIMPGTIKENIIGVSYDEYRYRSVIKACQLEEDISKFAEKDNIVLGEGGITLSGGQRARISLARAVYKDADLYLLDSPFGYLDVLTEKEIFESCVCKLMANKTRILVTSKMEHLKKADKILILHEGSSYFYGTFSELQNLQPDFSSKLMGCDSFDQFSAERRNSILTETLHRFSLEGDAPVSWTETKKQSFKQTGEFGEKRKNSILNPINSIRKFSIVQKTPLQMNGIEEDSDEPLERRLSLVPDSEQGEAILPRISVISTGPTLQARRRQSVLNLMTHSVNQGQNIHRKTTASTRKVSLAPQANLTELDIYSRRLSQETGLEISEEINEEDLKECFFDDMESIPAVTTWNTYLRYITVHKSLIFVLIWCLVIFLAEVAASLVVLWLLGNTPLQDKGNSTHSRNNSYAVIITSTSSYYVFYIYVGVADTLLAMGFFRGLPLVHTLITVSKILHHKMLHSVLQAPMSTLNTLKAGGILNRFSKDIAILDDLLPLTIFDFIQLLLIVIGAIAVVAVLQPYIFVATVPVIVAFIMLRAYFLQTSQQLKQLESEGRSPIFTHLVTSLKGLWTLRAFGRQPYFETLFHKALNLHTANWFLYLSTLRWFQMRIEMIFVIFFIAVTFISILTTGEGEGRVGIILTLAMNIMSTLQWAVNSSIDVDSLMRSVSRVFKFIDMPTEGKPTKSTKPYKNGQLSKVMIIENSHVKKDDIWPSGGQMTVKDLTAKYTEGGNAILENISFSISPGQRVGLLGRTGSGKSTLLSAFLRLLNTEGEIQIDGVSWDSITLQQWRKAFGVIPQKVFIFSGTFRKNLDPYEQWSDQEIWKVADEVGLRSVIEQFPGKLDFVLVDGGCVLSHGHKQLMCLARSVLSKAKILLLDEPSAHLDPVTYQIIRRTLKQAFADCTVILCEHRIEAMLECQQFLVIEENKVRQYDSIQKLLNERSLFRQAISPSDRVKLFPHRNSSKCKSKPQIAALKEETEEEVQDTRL

| SMILES | % Activation (ΔF508-CFTR [1]; [3]) [%] | EC50 (ΔF508-CFTR [1]; [4]) [nM] | % Activation (ΔF508-CFTR [2]; [5]) [%] | EC50 (ΔF508-CFTR [2]; [6]) [nM] | % Activation (ΔF508-CFTR [2]; [7]) [%] | EC50 (ΔF508-CFTR [2]; [8]) [nM] | EC50 (ΔF508-CFTR [1]) [nM] | EC50 (ΔF508-CFTR [2]) [nM] |
| --- | --- | --- | --- | --- | --- | --- | --- | --- |
| CN(c1ccc(-c2cc(C(=O)O)nc3c2c(C2CCC2)nn3-c2cccc(N3CCCC3)c2)cc1)C1CCOCC1 [compound 251, 3-cyclobutyl-4-{4-[methyl(oxan-4-yl)amino]phenyl}-1-[3-(pyrrolidin-1-yl)phenyl]-1H-pyrazolo[3,4-b]pyridine-6-carboxylic acid] | 577.73 | 353 | 389.2 | 438 |  |  |  |  |
| Cc1cccc(-n2nc(C(C)C)c3c(N4CCC5(CCOCC5)C4)cc(C(=O)O)nc32)c1 [compound 262, 1-(3-methylphenyl)-4-(8-oxa-2-azaspiro[4.5]decan-2-yl)-3-(propan-2-yl)-1H-pyrazolo[3,4-b]pyridine-6-carboxylic acid] | 375.95 | 853 | 164.4 | 916 |  |  |  |  |
| Cc1nn(-c2ccccc2)c2nc(C(=O)O)cc(O[C@H]3C[C@@H](N4CCCCC4)C3)c12 [compound 346, 3-methyl-1-phenyl-4-{[cis-3-(piperidin-1-yl)cyclobutyl]oxy}-1H-pyrazolo[3,4-b]pyridine-6-carboxylic acid] | 151.2 | 4170 | 20.555 | 7500 |  |  |  |  |
| CC(C)Oc1nn(C2CCCCC2)c2nc(C(=O)O)cc(-c3ccc(N4CCN(C(C)C)CC4)cc3)c12 [compound 863, 1-cyclohexyl-3-[(propan-2-yl)oxy]-4-{4-[4-(propan-2-yl)piperazin-1-yl]phenyl}-1H-pyrazolo[3,4-b]pyridine-6-carboxylic acid] | 320.9 | 370 |  |  | 156.35 | 499 |  |  |
| CC1(COc2cc(C(=O)O)nc3c2c(C2CCC2)nn3-c2ccccc2)CC(F)(F)C1 [compound 476, 3-cyclobutyl-4-[(3,3-difluoro-1-methylcyclobutyl)methoxy]-1-phenyl-1H-pyrazolo[3,4-b]pyridine-6-carboxylic acid] | 297.8 | 386 |  |  | 121.45 | 513 |  |  |
| O=C(O)c1cc(N2CCC(N3CCOCC3)CC2)c2c(C3CCC3)nn(-c3ccnc(OCc4ccccc4)c3)c2n1 [compound 856, 1-[2-(benzyloxy)pyridin-4-yl]-3-cyclobutyl-4-[4-(morpholin-4-yl)piperidin-1-yl]-1H-pyrazolo[3,4-b]pyridine-6-carboxylic acid] | 416.9 | 88.3 |  |  | 230.7 | 248 |  |  |
| CN1CC[C@@H](Oc2cc(C(=O)O)nc3c2c(C2CCC2)nn3-c2ccccc2)C1 [compound 650, 3-cyclobutyl-4-{[(3R)-1-methylpyrrolidin-3-yl]oxy}-1-phenyl-1H-pyrazolo[3,4-b]pyridine-6-carboxylic acid] | 193.6 | 3330 |  |  | 45.88 | 3330 |  |  |
| O=C(O)c1cc(OC[C@@H]2CCCO2)c2c(C3CCC3)nn(-c3ccccc3)c2n1 [compound 480, 3-cyclobutyl-4-{[(2S)-oxolan-2-yl]methoxy}-1-phenyl-1H-pyrazolo[3,4-b]pyridine-6-carboxylic acid] | 270.4 | 364 |  |  | 115.15 | 862 |  |  |
| CC(C)c1nn(C2CCCCC2)c2nc(C(=O)O)cc(-c3ccc(N4CCOC(C)(C)C4)nc3)c12 [compound 197, 1-cyclohexyl-4-[6-(2,2-dimethylmorpholin-4-yl)pyridin-3-yl]-3-(propan-2-yl)-1H-pyrazolo[3,4-b]pyridine-6-carboxylic acid] | 445.2 | 432 | 219.25 | 644 |  |  |  |  |
| COCCCN1CCN(c2cc(C(=O)O)nc3c2c(C)nn3-c2ccccc2)CC1 [compound 321, 4-[4-(3-methoxypropyl)piperazin-1-yl]-3-methyl-1-phenyl-1H-pyrazolo[3,4-b]pyridine-6-carboxylic acid] | 196.85 | 2510 | 39.85 | 2510 |  |  |  |  |
| CN(c1ccc(-c2cc(C(=O)O)nc3c2c(C2CCC2)nn3-c2ccccc2)cn1)C1CCOCC1 [compound 183, 3-cyclobutyl-4-{6-[methyl(oxan-4-yl)amino]pyridin-3-yl}-1-phenyl-1H-pyrazolo[3,4-b]pyridine-6-carboxylic acid] | 469.58 | 460 | 252.9 | 528 |  |  |  |  |
| CCCOCCN1CCN(c2cc(C(=O)O)nc3c2c(C2CCC2)nn3-c2ccccc2)CC1 [compound 555, 3-cyclobutyl-1-phenyl-4-[4-(2-propoxyethyl)piperazin-1-yl]-1H-pyrazolo[3,4-b]pyridine-6-carboxylic acid] | 310.65 | 169 |  |  | 152 | 331 |  |  |
| O=C(O)c1cc(OC(CN2CCOCC2)CN2CCOCC2)c2c(C3CCC3)nn(-c3ccccc3)c2n1 [compound 641, 4-{[1,3-bis(morpholin-4-yl)propan-2-yl]oxy}-3-cyclobutyl-1-phenyl-1H-pyrazolo[3,4-b]pyridine-6-carboxylic acid] | 239.75 | 2270 |  |  | 65.07 | 3330 |  |  |
| O=C(O)c1cc(N2CCC(N3CCCC3)CC2)c2c(C3CCC3)nn(-c3ccccc3)c2n1 [compound 443, 3-cyclobutyl-1-phenyl-4-[4-(pyrrolidin-1-yl)piperidin-1-yl]-1H-pyrazolo[3,4-b]pyridine-6-carboxylic acid] | 317.25 | 1470 |  |  | 146.9 | 2300 |  |  |
| Cc1nn(C)cc1-c1cc(C(=O)O)nc2c1c(C(C)C)nn2C1CCCCC1 [compound 352, 1-cyclohexyl-4-(1,3-dimethyl-1H-pyrazol-4-yl)-3-(propan-2-yl)-1H-pyrazolo[3,4-b]pyridine-6-carboxylic acid] | 210.15 | 1430 | 55.175 | 1510 |  |  |  |  |
| CC(C)c1nn(-c2ccc(F)cc2)c2nc(C(=O)O)cc(N3CCN(CCO)CC3)c12 [compound 773, 1-(4-fluorophenyl)-4-[4-(2-hydroxyethyl)piperazin-1-yl]-3-(propan-2-yl)-1H-pyrazolo[3,4-b]pyridine-6-carboxylic acid] | 141.8 | 5000 |  |  | 16.13 | 5000 |  |  |
| CC(C)Oc1nn(C2CCCCC2)c2nc(C(=O)O)cc(-c3ccc(C(=O)N4CCC(N(C)C)CC4)cc3)c12 [compound 861, 1-cyclohexyl-4-{4-[4-(dimethylamino)piperidine-1-carbonyl]phenyl}-3-[(propan-2-yl)oxy]-1H-pyrazolo[3,4-b]pyridine-6-carboxylic acid] | 155.4 |  |  |  | 31.08 |  |  |  |
| O=C(O)c1cc(NC[C@@H]2CCCO2)c2c(C3CCC3)nn(-c3ccccc3)c2n1 [compound 655, 3-cyclobutyl-4-({[(2S)-oxolan-2-yl]methyl}amino)-1-phenyl-1H-pyrazolo[3,4-b]pyridine-6-carboxylic acid] | 340.2 |  |  |  | 165.6 |  | 1130 | 3100 |
| Cc1nn(-c2ccn(C)c(=O)c2)c2nc(C(=O)O)cc(-c3ccc(N4CCOCC4)cc3)c12 [compound 94, 3-methyl-1-(1-methyl-2-oxo-1,2-dihydropyridin-4-yl)-4-[4-(morpholin-4-yl)phenyl]-1H-pyrazolo[3,4-b]pyridine-6-carboxylic acid] | 119.4 | > 10000 | 3.061 | > 10000 |  |  |  |  |
| COC1CN(C(=O)COc2cc(C(=O)O)nc3c2c(C2CCC2)nn3-c2ccccc2)C1 [compound 481, 3-cyclobutyl-4-[2-(3-methoxyazetidin-1-yl)-2-oxoethoxy]-1-phenyl-1H-pyrazolo[3,4-b]pyridine-6-carboxylic acid] | 210.3 | 3050 |  |  | 48.6 | 3340 |  |  |
